Earlier results on three molecules are cited in patent US20110250132A1, “LIPOIC ACID METABOLITE: USEFUL FOR DRUG CARRIER, NANOPARTICLE CONJUGATE, IMAGING AND HYPERTHERMIA THERAPY” (priority 2010, published 2011).

The conditions of data set [1]: accumulates in all neuronal cell types.
The conditions of data set [2]: reduced form with two —SH groups.
Data set [3] has as its system insulin-resistant rat skeletal muscle.
Another data set deals with cataracts. The conditions noted are these: rats.

Turning to `O=C(O)CCCCC1CCSS1` (stereo not drawn) [Alpha-lipoic acid], the blood-brain barrier crossing entry in data set [1] is “readily crosses the blood-brain barrier”. For the same molecule, the preventing iron accumulation entry in the data set with lens epithelial cells is recorded as “beneficial effects”. In the case of `O=C(O)CCCC[C@@H](S)CCS` (racemic) [DHLA, dihydrolipoic acid], the oxidation potential in data set [2] is on record as −0.29 v. Turning to `O=C(O)CCCC[C@@H]1CCSS1` [R-alpha-lipoic acid], the “enhancing insulin-stimulated glucose transport and metabolism” value in data set [3] is “more effective than S-alpha-lipoic acid”. Further, the preventing cataracts result in the data set with cataracts was “more effective than racemic alpha-lipoic acid and S-alpha-lipoic acid”.
